ChEMBL document CHEMBL1201862, “PubChem BioAssay data set” (2004)
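Assay format: 96-well plates, 48-hour exposure. GI50: concentration for 50% inhibition of growth.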 Activity calls are given as the source filed them. No stated cut-off is given here; in the data, active = GI50 up to about 1.1 µM and inactive = higher.

Legend:
Test in all cases: NCI-60 cell line screen, 48 h
HOP-62 = tested on: HOP-62
Hs-578T = tested on: Hs-578T
ACHN = tested on: ACHN
SK-OV-3 = tested on: SK-OV-3
MOLT-4 = tested on: MOLT-4
A498 = tested on: A498
HT-29 = tested on: HT-29
SR = tested on: SR
SF-268 = tested on: SF-268
KM12 = tested on: KM12
NCI-H23 = tested on: NCI-H23
SF-539 = tested on: SF-539
SN12C = tested on: SN12C
HL-60 = tested on: HL-60
RPMI-8226 = tested on: RPMI-8226
HOP-92 = tested on: HOP-92
NCI-H226 = tested on: NCI-H226
OVCAR-3 = tested on: OVCAR-3
NCI/ADR-RES = tested on: NCI/ADR-RES

Measured: GI50

O=C(CNc1ccccc1Cl)Nn1c(-c2ccccc2)nc2ccccc2c1=O
inactive: HOP-62 27.9 µM | Hs-578T 25.6 µM | ACHN 37.4 µM | SK-OV-3 38.1 µM | MOLT-4 13.2 µM | A498 49.8 µM | HT-29 > 10 µM | SR 23.4 µM | SF-268 30.1 µM | KM12 28.6 µM | NCI-H23 16.4 µM | SF-539 21.6 µM | SN12C 34.4 µM | HL-60 22.4 µM | RPMI-8226 28.7 µM | HOP-92 13.4 µM | NCI-H226 28.5 µM | OVCAR-3 23.1 µM

CCOC(=O)c1nc2ccccc2nc1Nc1cc(OC)c(OC)c(OC)c1
inactive: HOP-62 > 100 µM | Hs-578T 92.9 µM | ACHN > 100 µM | SK-OV-3 > 100 µM | MOLT-4 > 100 µM | HT-29 > 100 µM | SR > 100 µM | SF-268 > 100 µM | KM12 > 100 µM | NCI-H23 > 100 µM | SF-539 > 100 µM | SN12C > 100 µM | HL-60 > 100 µM | RPMI-8226 > 100 µM | NCI/ADR-RES > 100 µM | HOP-92 > 100 µM | OVCAR-3 > 100 µM

CC(=O)OCC(C)(COC(C)=O)N1C(=O)C2C3c4ccccc4C(c4ccccc43)C2C1=O (stereo not given)
inactive: Hs-578T > 100 µM | ACHN > 100 µM | SK-OV-3 > 100 µM | MOLT-4 > 100 µM | A498 > 100 µM | HT-29 > 100 µM | SR > 100 µM | SF-268 > 100 µM | KM12 > 100 µM | NCI-H23 > 100 µM | SF-539 > 100 µM | HL-60 > 100 µM | RPMI-8226 > 100 µM | HOP-92 > 100 µM | NCI-H226 > 100 µM | OVCAR-3 > 100 µM

N#CCCN(CCCN(C(=O)Nc1ccccc1)c1ccccc1)C(=O)Nc1ccccc1
inactive: HOP-62 > 100 µM | ACHN > 100 µM | SK-OV-3 > 100 µM | MOLT-4 32.6 µM | HT-29 > 100 µM | SR > 100 µM | KM12 87.9 µM | NCI-H23 61.7 µM | SF-539 > 100 µM | SN12C > 100 µM | HL-60 27.2 µM | RPMI-8226 53 µM | NCI/ADR-RES > 100 µM | HOP-92 71.1 µM | NCI-H226 > 100 µM | OVCAR-3 > 100 µM

COc1ccc(CNc2nc3cc(C(F)(F)F)ccc3nc2-c2ccccc2)cc1OC
inactive: HOP-62 23.9 µM | Hs-578T 25.2 µM | ACHN 23.8 µM | SK-OV-3 > 100 µM | MOLT-4 25.5 µM | HT-29 21.1 µM | SR 15.3 µM | SF-268 62.8 µM | KM12 29.5 µM | NCI-H23 20.8 µM | SF-539 45.9 µM | SN12C > 10 µM | HL-60 34 µM | NCI/ADR-RES 54.5 µM | OVCAR-3 96.8 µM

C=C(C)C1CC=C(C)C(=O)C1 (stereo not given) [CARVONE]
inactive: HOP-62 > 100 µM | Hs-578T > 100 µM | ACHN > 100 µM | MOLT-4 > 100 µM | HT-29 > 100 µM | SR > 100 µM | SF-268 > 100 µM | KM12 > 100 µM | NCI-H23 > 100 µM | SF-539 > 100 µM | SN12C > 100 µM | HL-60 > 100 µM | RPMI-8226 > 100 µM | NCI/ADR-RES > 100 µM | HOP-92 > 100 µM | NCI-H226 > 100 µM | OVCAR-3 > 100 µM

C[C@@H](c1ccccc1)N1CO[C@@]2(C#Cc3ccc4c(c3)OCO4)CCC[C@@H]12
inactive: HOP-62 15.8 µM | Hs-578T 15.9 µM | ACHN > 100 µM | SK-OV-3 17.4 µM | MOLT-4 9.59 µM | HT-29 16.6 µM | SR 8.67 µM | KM12 15.7 µM | NCI-H23 14.7 µM | SN12C 17.1 µM | HL-60 7.94 µM | RPMI-8226 11.2 µM | NCI/ADR-RES 14.7 µM | HOP-92 5.3 µM | NCI-H226 20.6 µM

COc1ccc(N2C(=O)/C(=C/c3ccc(N(CCC#N)CCC#N)cc3)N=C2c2ccccc2)c(OC)c1
inactive: Hs-578T 50.6 µM | ACHN > 100 µM | SK-OV-3 > 100 µM | MOLT-4 28.2 µM | HT-29 > 100 µM | SR 22.4 µM | SF-268 > 100 µM | KM12 35.5 µM | NCI-H23 60.3 µM | SF-539 40.4 µM | SN12C > 100 µM | HL-60 30.3 µM | RPMI-8226 29 µM | NCI/ADR-RES 52.8 µM | HOP-92 31.1 µM | NCI-H226 27.4 µM | OVCAR-3 98.4 µM

Cn1c2ccccc2c(=O)c2ccc(Cl)cc21
inactive: HOP-62 > 10 µM | SK-OV-3 6.71 µM | MOLT-4 > 10 µM | HT-29 > 10 µM | SR > 10 µM | SF-268 > 10 µM | KM12 > 10 µM | NCI-H23 > 10 µM | SF-539 2.51 µM | SN12C > 10 µM | HL-60 9.95 µM | RPMI-8226 > 10 µM | HOP-92 > 10 µM | OVCAR-3 > 10 µM
